{"source": "patent US8222487B2", "about": "“Application of ERF genes from Bupleurum kaoi” (National Tsing Hua University, priority 2009, dated 2012)", "key": {"[1]": {"test_system": "B. kaoi adventitious roots", "assay": "Effect of MeJA on saikosaponin production in adventitious roots (HPLC)", "type": "cell-based, Bupleurum kaoi", "settings": "for Increase of total saikosaponins: 2 weeks after treatment, P<0.05; for Saikosaponin: measured 14 days after MeJA treatment, mean ± S.E., n=3", "method": "Adventitious root cultures were induced from the roots of germ-free seedlings of B. kaoi and were subcultured every 6 weeks by adding 0.2 g roots to a 125 ml flask containing 50 ml of B5 liquid medium supplemented with 2 mg 1^−1 NAA. Cultures were shaken using a rotary shaker at 100 rpm at 25° C. in the dark. To quantify the effect of MeJA on saikosaponin level, adventitious roots were treated with 500 and 1000 μM MeJA 2 weeks after subculture. Total saikosaponin was measured 2 weeks after MeJA treatment. To monitor expression of MeJA-responsive genes, the nutrient medium was refreshed 4 weeks after subculture and MeJA (500 μM) was applied 2 weeks after refreshment. Roots were harvested at 13 time points (5 min; 1, 2, 8, 24 hours; 2, 4, 6, 8 days; 2, 3, 4, 5 weeks) after the addition of the MeJA. The saikosaponins level was measured according to Li et al. (Li X. Q. et al., Biol. Pharm. Bull. 28 (2005) 1736-1742) with some modifications. Freeze-dried adventitious roots were ground into a fine powder and extracted with 70% methanol at a ratio of 10:1 (v/w) at 25° C. with gentle shaking for 24 h. After centrifugation at 10,000×g for 10 min, the supernatant was filtered through a 0.45 μm filter. The amount of total saikosaponins (saikosaponin-a, saikosaponin-c, and saikosaponin-d) in each extract was quantified using a high performance liquid chromatograph (HPLC) (Waters 600 controller autoinjector) with a C18 Inertsil 5 ODS-2 column (4.6 mm×250 mm) and a mobile phase of 45% acetonitrile/55% H2O. The flow rate was 1 ml min^−1, the injection volume was 20 μl, and the eluent was monitored at 210 nm using a Waters 996 photodiode array detector."}, "[2]": {"test_system": "B. kaoi adventitious roots", "assay": "Measurement of H2O2 in adventitious roots", "type": "cell-based, Bupleurum kaoi", "settings": "500 μM MeJA; during 5 weeks culture", "method": "(§1) To test whether MeJA caused oxidative stress, the H2O2 level was measured as described below. H2O2 was extracted by homogenizing 0.3 to 0.5 g of adventitious roots with 3 ml phosphate buffer (50 mM, pH6.8) and centrifuged at 6000×g for 25 min. A 2 ml extract was mixed with 1 ml 0.1% titanium sulfate in 20% H2SO4 (v/v), and centrifuged at 6000×g for 15 min. The optical density of the supernatant was measured at 410 nm using an equal volume of phosphate buffer as a blank. […] The MDA level was colorimetrically measured as described below. MDA was extracted by homogenizing 0.3 to 0.5 g adventitious roots with 2 ml 5% trichloroacetic acid, and centrifuged at 10,000×g for 5 min at 20° C. A mixture of 1 ml supernatant with 4 ml 0.5% thiobarbituric acid in 20% trichloroacetic acid was heated in a 95° C. water bath for 30 min and centrifuged for 10 min at 2000×g to remove haziness. Optical density of the supernatant was measured at 532 nm and 600 nm using 1 ml 5% trichloroacetic acid to replace supernatant as a blank."}, "[3]": {"test_system": "B. kaoi adventitious roots", "assay": "Measurement of malondialdehyde (MDA) in adventitious roots", "type": "cell-based, Bupleurum kaoi", "method": "as §1"}, "[4]": {"test_system": "B. kaoi adventitious roots", "assay": "cDNA microarray of MeJA-responsive genes in adventitious roots", "type": "cell-based, Bupleurum kaoi", "settings": "500 μM MeJA; microarray analysis", "method": "Adventitious root cultures were induced from the roots of germ-free seedlings of B. kaoi and were subcultured every 6 weeks by adding 0.2 g roots to a 125 ml flask containing 50 ml of B5 liquid medium supplemented with 2 mg 1^−1 NAA. Cultures were shaken using a rotary shaker at 100 rpm at 25° C. in the dark. To quantify the effect of MeJA on saikosaponin level, adventitious roots were treated with 500 and 1000 μM MeJA 2 weeks after subculture. Total saikosaponin was measured 2 weeks after MeJA treatment. To monitor expression of MeJA-responsive genes, the nutrient medium was refreshed 4 weeks after subculture and MeJA (500 μM) was applied 2 weeks after refreshment. Roots were harvested at 13 time points (5 min; 1, 2, 8, 24 hours; 2, 4, 6, 8 days; 2, 3, 4, 5 weeks) after the addition of the MeJA. […]\nThe DNA microarray data were imported into GeneSpring 7.2 (Silicon Genetics) for further analyses. […] The coefficient of variation was calculated by dividing the standard deviation by the mean. Net intensities of both channels were calculated by subtraction of the median fluorescent intensity of the background from the mean fluorescent intensity of each feature. […] Fold change was calculated for each gene by dividing the average intensity of MeJA-treated samples by the average intensity of the corresponding control samples. […]"}, "[5]": {"test_system": "cell suspension cultures of Medicago truncatula", "settings": "5 μM MeJA for 2 h; cited from earlier work"}}, "data": [{"smiles": "CC/C=C\\CC1C(=O)CCC1CC(=O)OC", "note": "(stereo not drawn) [MeJA, Methyl jasmonate]", "values": [{"measurement": "Increase of total saikosaponins", "setting": "[1]; 500 μM MeJA", "result": 38, "unit": "fold"}, {"measurement": "Increase of total saikosaponins", "setting": "[1]; 1000 μM MeJA", "result": 21, "unit": "fold"}, {"measurement": "Saikosaponin", "setting": "[1]; MeJA 500 μM", "result": "63.60 ± 20.46 μg g^−1 of dry wt"}, {"measurement": "Saikosaponin", "setting": "[1]; MeJA 1000 μM", "result": "39.73 ± 13.25 μg g^−1 of dry wt"}, {"measurement": "H2O2 levels in the adventitious roots", "setting": "[2]", "result": "did not significantly change"}, {"measurement": "Increase in the MDA level", "setting": "[3]; 500 μM MeJA, at 2 days", "result": 1.4, "unit": "fold"}, {"measurement": "Accumulation of MDA", "setting": "[3]; all treatments during 5 weeks", "result": "< 47", "unit": "nmol/g"}, {"measurement": "Two BkP450 genes (AM421810, AM421812) increase", "setting": "[4]", "result": 2, "unit": "fold"}, {"measurement": "PAL transcripts induction", "setting": "[5]", "result": 3, "unit": "fold"}]}]}
